The results in this text go back to US12590106B2, “Spiromacrocyclic orexin 2 receptor agonists” (H. Lundbeck A/S, priority 2023, dated 2026).

The assay deals with T1, human Ox2R (Homo sapiens, UniProt O43614).
T1 construct: The gene encoding hOx2R was subcloned into the expression plasmid pcDNA5/FRT/TO; expressed in transfected cells; host or cells: CHO Flp-In cells (pcDNA5/FRT/TO with pOG44 Flp recombinase vector, hygromycin B selection)
T1 sequence (O43614 1-444): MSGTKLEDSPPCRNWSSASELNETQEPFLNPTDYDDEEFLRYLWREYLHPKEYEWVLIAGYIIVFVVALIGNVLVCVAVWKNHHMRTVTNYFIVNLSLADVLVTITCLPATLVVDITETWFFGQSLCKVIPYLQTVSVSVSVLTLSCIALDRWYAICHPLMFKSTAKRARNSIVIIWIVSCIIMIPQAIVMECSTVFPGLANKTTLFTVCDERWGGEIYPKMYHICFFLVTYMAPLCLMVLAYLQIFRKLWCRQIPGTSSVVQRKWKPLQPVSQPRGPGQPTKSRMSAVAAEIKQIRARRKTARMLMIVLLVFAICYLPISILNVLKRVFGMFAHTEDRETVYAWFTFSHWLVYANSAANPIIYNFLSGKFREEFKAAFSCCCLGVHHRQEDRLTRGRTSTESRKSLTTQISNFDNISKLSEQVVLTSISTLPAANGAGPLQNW
In words: Measurement of OX2R agonist activity (cell-based calcium release assay). The conditions noted are these: for EC50: intracellular calcium. From the text:
Measurement of OX2R Agonist Activity
The Ox2R has a broad signaling profile and couple to a range of different Gα-proteins. The cell-based calcium release assay is primarily assessing signaling through the Gαq signaling pathway, which promotes calcium mobilization via inositol triphosphate production upon activation of Ox2R.
A CHO Flp-In cell-line stably expressing the human Ox2R (hOx2R-CHO Flp-In) was established as follows: The gene encoding hOx2R was subcloned into the expression plasmid pcDNA5/FRT/TO and then transfected into CHO Flp-In cells together with the Flp recombinase vector, pOG44. Cells were cultured in growth medium: Ham's F12 (Gibco), 10% fetal bovine serum (Gibco) and 100 U/mL penicillin-streptomycin (Gibco) supplemented with hygromycin B (Thermo Fisher Scientific) as selection marker at 37° C. in the presence of 5% CO2.
To prepare the hOx2R-CHO FlpIn cells for calcium release assay, the cells were suspended in growth medium and seeded in black, clear-bottomed 384-well plates (Corning) at 10,000 cells/well. The plated cells were grown overnight at 37° C. and 5% CO2. The following day, the media was removed, and the cells were incubated with assay buffer (HBSS with 20 mM HEPES, pH 7.4) containing 2.5 mM probenecid (Thermo Fisher Scientific), 10 mM CaCl2, 0.1% pluronic F68 (Gibco) and 1× calcium-4 dye (Molecular Devices) for 1 h at 37° C. and 5% CO2. After incubation, cells were allowed to equilibrate at room temperature for 15 minutes and then loaded into FDSS7000Ex system (Hamamatsu Photonics) together with a plate containing test compounds serially diluted in assay buffer. Cells were stimulated with test compounds (online injection) and the agonist activity was determined as an increase in intracellular calcium concentration measured from the ratio of fluorescence emission at 542 nm by excitation at 480 nm. The agonist response for each applied concentration was assessed as the ratio: maximum fluorescence/average pre-stimulated fluorescence and was normalized to responses from assay buffer alone (0% response) and 10 μM Danavorexton (100% response). EC50 and Emax values were calculated from concentration-response curves by using Genedata Screener software.
A general note: Calcium assays in cells follow changes in intracellular calcium, usually with a dye or a luminescent sensor.

The mark [1] stands for this setting: hOx2R-CHO Flp-In cells, n≥2 tests, read-out: EC50.
Where [2] appears, read: hOx2R-CHO Flp-In cells, normalized to assay buffer (0%) and 10 μM Danavorexton (100%), n≥2 tests, read-out: Emax (%).

Like-named read-outs stand apart in the source and are kept apart here.

A word on the EC50: it is the concentration at which the effect is half-maximal. The Emax is the size of the effect at its maximum, as opposed to the concentration needed. With `CS(=O)(=O)NC1CCC2(C1)c1nc(co1)COc1c(F)cccc1-c1cc(ccc1F)C2F` (single isomer, unassigned) [Example 77, N-[(1′S,14R,15S or 15R)-6,15,19-trifluorospiro[8,12-dioxa-21-azatetracyclo[14.3.1.110,13.02,7]henicosa-1(19),2,4,6,10,13(21),16(20),17-octaene-14,3′-cyclopentane]-1′-yl]methanesulfonamide], the EC50 under setting [1] came out at 1.4 nM. The Emax under setting [2] was found to be 99%.
As to `CS(=O)(=O)NC1CCC2(C1)c1nc(co1)COc1c(F)cccc1-c1cc(ccc1F)C2F` (single isomer, unassigned) [Example 78, N-[(1′S,14R,15S or 15R)-6,15,19-trifluorospiro[8,12-dioxa-21-azatetracyclo[14.3.1.110,13.02,7]henicosa-1(19),2,4,6,10,13(21),16(20),17-octaene-14,3′-cyclopentane]-1′-yl]methanesulfonamide], the EC50 under setting [1] stood at 0.17 nM. For the same molecule, the “Emax (%)” value (hOx2R-CHO Flp-In cells, normalized to assay buffer (0%) and 10 μM Danavorexton (100%), n≥2 tests) was determined as 95%.
For `CC1Oc2ccccc2-c2cccc(c2)C[C@@]2(CC[C@H](NS(C)(=O)=O)C2)c2nccc1n2` (single isomer, unassigned) [Example 88, N-[(1′S,9R*,15R)-9-methylspiro[8-oxa-13,22-diazatetracyclo[15.3.1.110,14.02,7]docosa-1(21),2,4,6,10,12,14(22),17,19-nonaene-15,3′-cyclopentane]-1′-yl]methanesulfonamide], the EC50 under setting [1] was 1600 nM. Also, under setting [2], the Emax came to 88%.
In the case of `C[C@@H]1Oc2ccccc2-c2cccc(c2)C[C@@]2(CC[C@H](NS(C)(=O)=O)C2)c2nccc1n2` (single isomer, unassigned) [Example 89, N-[(1′S,9S*,15R)-9-methylspiro[8-oxa-13,22-diazatetracyclo[15.3.1.110,14.02,7]docosa-1(21),2,4,6,10,12,14(22),17,19-nonaene-15,3′-cyclopentane]-1′-yl]methanesulfonamide], the EC50 under setting [1] was found to be 3.7 nM. The Emax under setting [2] stood at 110%.
As to `C[C@H]1C[C@H](NS(C)(=O)=O)C[C@]12Cc1ccc(F)c(c1)-c1cccc(F)c1OCc1ccnc2n1` (single isomer, unassigned) [Example 94, N-[(1′S,4′S,15R)-6,20-difluoro-4′-methyl-spiro[8-oxa-13,22-diazatetracyclo[15.3.1.110,14.02,7]docosa-1(20),2,4,6,10,12,14(22),17(21),18-nonaene-15,3′-cyclopentane]-1′-yl]methanesulfonamide or N-[(1′R,4′R,15S)-6,20-difluoro-4′-methyl-spiro[8-oxa-13,22-diazatetracyclo[15.3.1.110,14.02,7]docosa-1(20),2,4,6,10,12,14(22),17(21),18-nonaene-15,3′-cyclopentane]-1′-yl]methanesulfonamide], the Emax is 94%. Besides, the EC50 (EC50 (nM), hOx2R-CHO Flp-In cells, n≥2 tests) was 6.7 nM.
As to `CS(=O)(=O)N[C@H]1CC[C@@]2(CO[C@H]3CC[C@H](CC3)c3nccc(n3)OCc3coc2n3)C1` [Example 1, N-[(1s,1′S,13S,16s)-spiro[7,11,15-trioxa-3,21,22-triazatetracyclo[14.2.2.12,6.19,12]docosa-2,4,6(22),9,12(21)-pentaene-13,3′-cyclopentane]-1′-yl]methanesulfonamide], the EC50 under setting [1] stood at 9.7 nM. For the same molecule, the Emax under setting [2] is 98%.
Taken in the same sequence, the figures for `CS(=O)(=O)N[C@H]1CC[C@@]2(CO[C@H]3CC[C@H](CC3)c3ccccc3OCc3coc2n3)C1` [Example 2, N-[(1s,1′S,14R,17s)-spiro[8,12,16-trioxa-22-azatetracyclo[15.2.2.110,13.02,7]docosa-2,4,6,10,13(22)-pentaene-14,3′-cyclopentane]-1′-yl]methanesulfonamide] were 0.43 nM and 99%.
On to `C[C@@H]1Oc2c(F)cccc2-c2cc(ccc2F)C[C@@]2(CC[C@H](NS(C)(=O)=O)C2)c2nc1co2` [Example 3, N-[(1′S,9S,14R)-6,19-difluoro-9-methyl-spiro[8,12-dioxa-21-azatetracyclo[14.3.1.110,13.02,7]henicosa-1(19),2(7),3,5,10,13(21),16(20),17-octaene-14,3′-cyclopentane]-1′-yl]methanesulfonamide], for which the EC50 under setting [1] was 0.97 nM. Further, the Emax under setting [2] worked out at 99%.
For the molecule `CS(=O)(=O)N[C@H]1CC[C@@]2(Cc3cccc(c3)-c3cccc(n3)OCCc3coc2n3)C1` [Example 4, N-[(1′S,8R)-spiro[10,15-dioxa-20,21-diazatetracyclo[14.3.1.12,6.19,12]docosa-1(19),2(22),3,5,9(21),11,16(20),17-octaene-8,3′-cyclopentane]-1′-yl]methanesulfonamide], under setting [1], the EC50 came to 330 nM. The maximal response (Emax) under setting [2] was 100%.
With `[2H]C1([2H])Oc2ccccc2-c2cc(ccc2F)C[C@@]2(CC[C@H](NS(C)(=O)=O)C2)c2nc1co2` [Example 5, N-[(1′S,14R)-9,9-dideuterio-19-fluoro-spiro[8,12-dioxa-21-azatetracyclo[14.3.1.110,13.02,7]henicosa-1(19),2,4,6,10,13(21),16(20),17-octaene-14,3′-cyclopentane]-1′-yl]methanesulfonamide], the EC50 under setting [1] was 0.36 nM. Besides, under setting [2], the Emax was determined as 100%.
For `[2H]C1([2H])Oc2c(F)cccc2-c2cc(ccc2F)C[C@@]2(CC[C@H](NS(C)(=O)=O)C2)c2nc1co2` [Example 6, N-[(1′S,14R)-9,9-dideuterio-6,19-difluoro-spiro[8,12-dioxa-21-azatetracyclo[14.3.1.110,13.02,7]henicosa-1(19),2,4,6,10,13(21),16(20),17-octaene-14,3′-cyclopentane]-1′-yl]methanesulfonamide] the same measures were 0.11 nM and 100%.
For the molecule `CS(=O)(=O)N[C@H]1CC[C@@]2(Cc3ccc(F)c(c3)-c3cccc(F)c3OCC3=CN=C2O3)C1` [Example 7, N-[(1′S,14R)-6,19-difluorospiro[8,21-dioxa-12-azatetracyclo[14.3.1.110,13.02,7]henicosa-1(19),2,4,6,10,12,16(20),17-octaene-14,3′-cyclopentane]-1′-yl]methanesulfonamide], the EC50 under setting [1] was determined as 21 nM. In addition, the Emax under setting [2] was 99%.
With `CS(=O)(=O)N[C@H]1CC[C@@]2(Cc3cccc(c3)-c3cccnc3OCc3coc2n3)C1` [Example 9, N-[(1′S,14R)-spiro[8,12-dioxa-6,21-diazatetracyclo[14.3.1.110,13.02,7]henicosa-1(20),2,4,6,10,13(21),16,18-octaene-14,3′-cyclopentane]-1′-yl]methanesulfonamide], the EC50 under setting [1] stood at 10 nM. The Emax under setting [2] was found to be 98%.
`CS(=O)(=O)N[C@H]1CC[C@@]2(Cc3cc(ccc3F)-c3ccccc3OCc3coc2n3)C1` [Example 10, N-[(1′S,14R)-17-fluorospiro[8,12-dioxa-21-azatetracyclo[14.3.1.110,13.02,7]henicosa-1(19),2,4,6,10,13(21),16(20),17-octaene-14,3′-cyclopentane]-1′-yl]methanesulfonamide]: under setting [1], the EC50 came out at 1.5 nM. The Emax under setting [2] is 100%.
For `CCS(=O)(=O)N[C@H]1CC[C@@]2(Cc3ccc(F)c(c3)-c3ccccc3OCc3coc2n3)C1` [Example 11, N-[(1′S,14R)-19-fluorospiro[8,12-dioxa-21-azatetracyclo[14.3.1.110,13.02,7]henicosa-1(19),2,4,6,10,13(21),16(20),17-octaene-14,3′-cyclopentane]-1′-yl]ethanesulfonamide] the same measures were 0.68 nM and 97%.
